We go through two substances from PMC5485657 (The Journal of Venomous Animals and Toxins Including …, 2017).

The test system of one assay is BK-induced rat paw edema. Kind of assay: Bradykinin-potentiating activity in vivo (rat paw edema). Details: species or system Male Wistar rats. The settings on record: intraplantar BK 40 ng/mL (2 ng in 50 μL saline). How it is done: Male Wistar (200 g-250 g) rats, bred at the Nuclear and Energy Research Institute (IPEN), São Paulo, SP, Brazil were used for the in vivo assays. The animals had access to food and water ad libitum, and were kept under a 12 h-light/dark cycle. Procedures involving animals and their care were in accordance with the guidelines for the use of animals on biomedical research and were approved by the Animal Ethics Committee (protocol 171/16) of IPEN.
Edema was induced by intraplantar injection of 2 ng of BK diluted in 50 μL saline into the left hind paw, which was measured every 5 min for 40 min by a plethysmograph (H. Basile, Italy). The right paw was injected with 50 μL […] saline (NaCl 0.9% w/v). In parallel, a group was injected with the synthetic potentiating peptide (40 ng/mL) in the left paw 10 min before the injection of BK, in order to evaluate the potentiation of BK. In both cases, the volume of the right paw was subtracted from that of volume of the left paw, to give net edema, expressed in μL.
One-way analysis of variance (ANOVA) was performed. The significance level was considered as p < 0.05.

The next assay deals with paw edema. Details: method as in PMID 15688321. The settings on record: previous study, similar approach; cited from earlier work.

Ends that are not written are not given here.

For “Bradykinin (RPPGFSPFR; also: acetate salt; UniProt P01042 381-389, looked up) [BK]”, in the assay on BK-induced rat paw edema (plethysmograph), the “time at which induced edema was detectable” value is 5 min. For the same substance, the “time course of edema (in words)” value in the assay on BK-induced rat paw edema (plethysmograph every 5 min for 40 min) is “declined at a constant rate over the next 40 min”. Turning to QWAQWPRPQIPP [BPP9a, B. jararaca BPP9a], the “paw edema (in words)” value in the assay with paw edema was “intense and fast paw edema”.
